Results: patent US9434711B2 (Janssen Pharmaceutica, NV, priority 2007, dated 2016)
Read-outs that look alike come from different tables or passages of the source.

Target: canine TRPM8 (Canis lupus familiaris, UniProt Q1A7N1)
Test: In Vitro Canine TRPM8 Functional Assay (Ca2+ fluorescence, icilin activation)
Type: cell-based
Settings: for inhibition at 0.5 µM / % Inh @ 0.5 (μM): compound at 0.5 μM; for inhibition at 0.5 µM: read-out: % Inh @ 0.5
Description: The functional activity of compounds of the formula (I) was determined by measuring changes in intracellular calcium concentration using a Ca^2+-sensitive fluorescent dye. The changes in fluorescent signal were monitored by a fluorescence plate reader, either a FLIPR™ (Molecular Devices) or FDSS (Hamamatsu).
At 24 hrs prior to assay, HEK293 cells stably expressing canine TRPM8 were seeded in culture medium in black wall, clear-base poly-D-lysine coated 384-well plates (BD Biosciences, NJ, USA) and grown overnight in 5% CO2 at 37° C. On assay day, growth media was removed and cells were loaded with Calcium 3 Dye (Molecular Devices) for 35 min at 37° C., under 5% CO2 and then for 25 min at room temperature and atmosphere. Subsequently, cells were tested for agonist-induced increases in intracellular Ca^2+ levels using FLIPR™ or FDSS. Cells were challenged with a compound of the Formula (I) (at varying concentrations) and intracellular Ca^2+ was measured for 5 min prior to the addition of icilin to all wells to achieve a final concentration that produces approximately an 80% maximal response. EC50 or IC50 values for compounds of the present invention were determined from eight-point dose-response studies. Curves were generated using the average of quadruplicate wells for each data point.

[1] = canine TRPM8, icilin activation
[2] = HEK293 cells stably expressing canine TRPM8, icilin activation, eight-point dose-response, read-out: IC50
[3] = compound at 0.2 μM, canine TRPM8, icilin activation, read-out: % Inh @ 0.2

Sequence of canine TRPM8 (Q1A7N1 1-1104): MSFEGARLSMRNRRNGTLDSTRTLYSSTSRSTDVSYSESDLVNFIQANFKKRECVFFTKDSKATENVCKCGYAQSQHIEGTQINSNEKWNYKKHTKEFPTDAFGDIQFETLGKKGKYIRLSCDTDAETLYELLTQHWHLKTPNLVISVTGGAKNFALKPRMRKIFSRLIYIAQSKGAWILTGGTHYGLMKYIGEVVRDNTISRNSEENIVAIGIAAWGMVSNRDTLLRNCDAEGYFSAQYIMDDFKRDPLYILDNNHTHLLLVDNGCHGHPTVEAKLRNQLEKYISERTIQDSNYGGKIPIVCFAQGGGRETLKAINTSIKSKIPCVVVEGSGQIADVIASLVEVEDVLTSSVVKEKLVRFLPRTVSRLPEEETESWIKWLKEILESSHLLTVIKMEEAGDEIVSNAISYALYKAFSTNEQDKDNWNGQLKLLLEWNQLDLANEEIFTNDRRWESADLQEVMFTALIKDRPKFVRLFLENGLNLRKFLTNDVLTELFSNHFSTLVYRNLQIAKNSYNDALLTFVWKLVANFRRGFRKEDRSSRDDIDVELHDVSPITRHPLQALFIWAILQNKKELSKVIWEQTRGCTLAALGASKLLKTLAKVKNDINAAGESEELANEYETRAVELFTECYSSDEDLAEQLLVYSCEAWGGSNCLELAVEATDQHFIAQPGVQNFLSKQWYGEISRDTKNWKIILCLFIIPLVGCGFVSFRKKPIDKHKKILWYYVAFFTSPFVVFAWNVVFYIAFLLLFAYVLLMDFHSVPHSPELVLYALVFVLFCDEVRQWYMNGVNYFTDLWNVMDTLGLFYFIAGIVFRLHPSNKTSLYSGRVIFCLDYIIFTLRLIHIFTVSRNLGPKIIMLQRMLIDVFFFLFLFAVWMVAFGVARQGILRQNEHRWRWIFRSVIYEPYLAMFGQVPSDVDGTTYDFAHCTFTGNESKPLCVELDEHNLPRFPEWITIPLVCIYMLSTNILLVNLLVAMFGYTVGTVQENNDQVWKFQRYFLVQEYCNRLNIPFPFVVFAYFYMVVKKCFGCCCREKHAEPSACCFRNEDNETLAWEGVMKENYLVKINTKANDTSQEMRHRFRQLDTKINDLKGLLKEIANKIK

In the case of `O=S(=O)(c1ccccc1)N(Cc1ccncc1)c1cc2ccccc2s1` [Compound 54, N-(Benzo[b]thiophen-2-yl)-N-(pyridin-4-ylmethyl)-benzenesulfonamide], the inhibition at 0.5 µM [1] is reported as 65%.
For `O=[N+]([O-])c1ccccc1CN(c1cc2ccccc2s1)S(=O)(=O)c1ccccc1` [Compound 55, N-(Benzo[b]thiophen-2-yl)-N-(2-nitro-benzyl)-benzenesulfonamide], the IC50 [2] was 65.5 nM and the inhibition at 0.5 µM [1] was 99%.
For `O=S(=O)(c1ccccc1)N(Cc1ccccc1OC(F)(F)F)c1cc2ccccc2s1` [Compound 56, N-(Benzo[b]thiophen-2-yl)-N-(2-trifluoromethoxy-benzyl)-benzenesulfonamide], the IC50 [2] was 103 nM and the inhibition at 0.5 µM [1] was 99%.
For `O=S(=O)(c1ccccc1)N(Cc1cccc(OC(F)(F)F)c1)c1cc2ccccc2s1` [Compound 57, N-(Benzo[b]thiophen-2-yl)-N-(3-trifluoromethoxy-benzyl)-benzenesulfonamide], the IC50 [2] was 108 nM and the inhibition at 0.5 µM [1] was 100%.
`O=S(=O)(c1ccccc1)N(Cc1ccc(OC(F)(F)F)cc1)c1cc2ccccc2s1` [Compound 58, N-(Benzo[b]thiophen-2-yl)-N-(4-trifluoromethoxy-benzyl)-benzenesulfonamide] was tested, and the IC50 [2] was 45.5 nM and the inhibition at 0.5 µM [1] was 98%.
`O=S(=O)(c1ccccc1)N(Cc1ccccc1)c1cc2ccccc2s1` [Compound 59, N-(Benzo[b]thiophen-2-yl)-N-(benzyl)-benzenesulfonamide] gave an IC50 [2] of 44.5 nM and an inhibition at 0.5 µM [1] of 98%.
In the case of `COc1cc(CN(c2cc3ccccc3s2)S(=O)(=O)c2ccccc2)ccc1F` [Compound 60, N-(Benzo[b]thiophen-2-yl)-N-(4-fluoro-3-methoxy-benzyl)-benzenesulfonamide], the IC50 [2] is reported as 28.3 nM and the inhibition at 0.5 µM [1] is reported as 97%.
`O=S(=O)(c1ccccc1)N(Cc1ccc(F)c(C(F)(F)F)c1)c1cc2ccccc2s1` [Compound 61, N-(Benzo[b]thiophen-2-yl)-N-(4-fluoro-3-trifluoromethyl-benzyl)-benzenesulfonamide] showed an IC50 [2] of 52.4 nM and an inhibition at 0.5 µM [1] of 95%.
With `Cc1ccccc1CN(c1cc2ccccc2s1)S(=O)(=O)c1ccccc1` [Compound 62] the IC50 [2] was 58.1 nM and the “% Inh @ 0.5 (μM)” value [1] was 98%.
For `Cc1cccc(CN(c2cc3ccccc3s2)S(=O)(=O)c2ccccc2)c1` [Compound 63], the IC50 [2] was 74 nM and the “% Inh @ 0.5 (μM)” value [1] was 98%.
Work on `COc1ccc(S(=O)(=O)N(Cc2ccc(F)c(C(F)(F)F)c2)c2sc3ccccc3c2C)cc1F` [Compound 64, N-(4-Fluoro-3-trifluoromethyl-benzyl)-N-(3-methyl-benzo[b]thiophen-2-yl)-3-fluoro-4-methoxybenzenesulfonamide] yielded an IC50 [2] of 19 nM and an inhibition at 0.2 µM [3] of 96%.
Molecule `Cc1c(N(Cc2ccc(F)c(C(F)(F)F)c2)S(=O)(=O)c2ccc3ncsc3c2)sc2ccccc12` [Compound 65, N-(4-Fluoro-3-trifluoromethyl-benzyl)-N-(3-methyl-benzo[b]thiophen-2-yl)-benzothiazole-6-sulfonamide] has an IC50 [2] of 17 nM and an inhibition at 0.2 µM [3] of 97%.
`Cc1c(N(Cc2ccc(F)c(C(F)(F)F)c2)S(=O)(=O)c2ccc3[nH]c(=O)oc3c2)sc2ccccc12` [Compound 66, N-(4-Fluoro-3-trifluoromethyl-benzyl)-N-(3-methyl-benzo[b]thiophen-2-yl)-2-oxo-2,3-dihydro-benzooxazole-6-sulfonamide] showed an IC50 [2] of 4 nM and an inhibition at 0.2 µM [3] of 96%.
For `Cc1c(N(Cc2ccc(F)c(C(F)(F)F)c2)S(=O)(=O)c2ccc3c(c2)NC(=O)CO3)sc2ccccc12` [Compound 67], the IC50 [2] was 55 nM and the “% Inh @ 0.2 (μM)” value (compound at 0.2 μM, canine TRPM8, icilin activation) was 77%.
`Cc1c(N(Cc2ccc(F)c(C(F)(F)F)c2)S(=O)(=O)c2ccc3c(c2)OCCN3C)sc2ccccc12` [Compound 68, N-(4-Fluoro-3-trifluoromethyl-benzyl)-N-(3-methyl-benzo[b]thiophen-2-yl)-4-methyl-3,4-dihydro-2H-benzo[1,4]oxazine-7-sulfonamide] showed an IC50 [2] of 2 nM and an inhibition at 0.2 µM [3] of 99%.
`Cc1c(N(Cc2ccc(F)c(C(F)(F)F)c2)S(=O)(=O)c2ccc(-c3csnn3)cc2)sc2ccccc12` [Compound 69, N-(4-Fluoro-3-trifluoromethyl-benzyl)-N-(3-methyl-benzo[b]thiophen-2-yl)-4-[1,2,3]thiadiazol-4-yl-benzenesulfonamide] gave an IC50 [2] of 3 nM and an inhibition at 0.2 µM [3] of 96%.
`Cc1c(N(Cc2ccc(F)c(C(F)(F)F)c2)S(=O)(=O)c2cccc(Oc3ccccc3)c2)sc2ccccc12` [Compound 70, N-(4-Fluoro-3-trifluoromethyl-benzyl)-N-(3-methyl-benzo[b]thiophen-2-yl)-3-phenoxy-benzenesulfonamide] was tested, and the IC50 [2] was 7 nM and the inhibition at 0.2 µM [3] was 99%.
`COC(=O)CCS(=O)(=O)N(Cc1ccc(F)c(C(F)(F)F)c1)c1sc2ccccc2c1C` [Compound 71] was tested, and the IC50 was 18 nM and the inhibition at 0.2 µM (read-out: % Inh @ 0.2 (μM)) was 98%.
For `Cc1nc(O)nc(O)c1S(=O)(=O)N(Cc1ccc(F)c(C(F)(F)F)c1)c1sc2ccccc2c1C` [Compound 72, N-(3-Methyl-benzo[b]thiophen-2-yl)-N-(4-fluoro-3-trifluoromethylbenzyl)-(2,4-dihydroxy-6-methyl-pyrimidine-5-yl)sulfonamide], the IC50 [2] was 26 nM and the inhibition at 0.2 µM [3] was 99%.
`Cc1c(N(Cc2ccc(F)c(C(F)(F)F)c2)S(=O)(=O)c2cccc3c2CN(C(=O)C(F)(F)F)CC3)sc2ccccc12` [Compound 73, N-(4-Fluoro-3-trifluoromethyl-benzyl)-N-(3-methyl-benzo[b]thiophen-2-yl)-2-(2,2,2-trifluoro-acetyl)-1,2,3,4-tetrahydro-isoquinoline-8-sulfonamide] showed an inhibition at 0.2 µM [3] of 24%.
`Cc1nn(C)c(C)c1S(=O)(=O)N(Cc1ccc(F)c(C(F)(F)F)c1)c1sc2ccccc2c1C` [Compound 74, N-(4-Fluoro-3-trifluoromethyl-benzyl)-N-(3-methyl-benzo[b]thiophen-2-yl)-1,3,5-trimethyl-1H-pyrazole-4-sulfonamide] showed an IC50 [2] of 21 nM and an inhibition at 0.2 µM [3] of 97%.
`Cc1nc(C)c(S(=O)(=O)N(Cc2ccc(F)c(C(F)(F)F)c2)c2sc3ccccc3c2C)s1` [Compound 75, N-(4-Fluoro-3-trifluoromethyl-benzyl)-N-(3-methyl-benzo[b]thiophen-2-yl)-2,4-dimethyl-thiazole-5-sulfonamide] gave an IC50 [2] of 18 nM and an inhibition at 0.2 µM [3] of 98%.
`Cc1c(N(Cc2ccc(F)c(C(F)(F)F)c2)S(=O)(=O)c2ccc(Cl)nc2)sc2ccccc12` [Compound 76, N-(4-Fluoro-3-trifluoromethyl-benzyl)-N-(3-methyl-benzo[b]thiophen-2-yl)-6-chloro-pyridine-3-sulfonamide] gave an IC50 [2] of 21 nM and an inhibition at 0.2 µM [3] of 95%.
Work on `Cc1c(N(Cc2ccc(F)c(C(F)(F)F)c2)S(=O)(=O)c2cccnc2Cl)sc2ccccc12` [Compound 77, N-(4-Fluoro-3-trifluoromethyl-benzyl)-N-(3-methyl-benzo[b]thiophen-2-yl)-2-chloro-pyridine-3-sulfonamide] yielded an IC50 [2] of 22 nM and an inhibition at 0.2 µM [3] of 97%.
Molecule `O=S(=O)(c1ccsc1)N(Cc1ccc(F)c(C(F)(F)F)c1)c1cc2ccccc2s1` [Compound 78, N-(Benzo[b]thiophen-2-yl)-N-(4-fluoro-3-trifluoromethyl-benzyl)-thiophene-3-sulfonamide] has an IC50 [2] of 22.5 nM and an inhibition at 0.2 µM [3] of 102%.
Work on `Cc1c(N(Cc2ccc(F)c(C(F)(F)F)c2)S(=O)(=O)c2cccc3c2CNCC3)sc2ccccc12` [Compound 79, N-(4-Fluoro-3-trifluoromethyl-benzyl)-N-(3-methyl-benzo[b]thiophen-2-yl)-1,2,3,4-tetrahydro-isoquinoline-8-sulfonamide] yielded an inhibition at 0.2 µM [3] of 69%.
`O=S(=O)(c1ccccc1)N(CC1CCCCC1)c1sc2ccccc2c1Cl` [Compound 80, N-(3-Chloro-benzo[b]thiophen-2-yl)-N-(cyclohexylmethyl)-benzenesulfonamide] was tested, and the IC50 [2] was 29 nM and the inhibition at 0.5 µM [1] was 98%.
In the case of `CC(C)(C)OCCN(c1sc2ccccc2c1Cl)S(=O)(=O)c1ccccc1` [Compound 81, N-(2-tert-Butoxy-ethyl)-N-(3-chloro-benzo[b]thiophen-2-yl)-benzenesulfonamide], the IC50 [2] is reported as 15 nM and the inhibition at 0.5 µM [1] is reported as 99%.
For `O=C1CCCN1CCN(c1sc2ccccc2c1Cl)S(=O)(=O)c1ccccc1` [Compound 82, N-(3-Chloro-benzo[b]thiophen-2-yl)-N-[2-(2-oxo-pyrrolidin-1-yl)-ethyl]-benzenesulfonamide], the IC50 [2] was 319 nM and the inhibition at 0.5 µM [1] was 87%.
`CCCCN(c1sc2ccccc2c1Cl)S(=O)(=O)c1ccccc1` [Compound 83, N-(Butyl)-N-(3-chloro-benzo[b]thiophen-2-yl)-benzenesulfonamide] showed an IC50 [2] of 48 nM and an inhibition at 0.5 µM [1] of 101%.
In the case of `C=CCN(c1sc2ccccc2c1Cl)S(=O)(=O)c1ccccc1` [Compound 84, N-(Allyl)-N-(3-chloro-benzo[b]thiophen-2-yl)-benzenesulfonamide], the IC50 [2] is reported as 35 nM and the inhibition at 0.5 µM [1] is reported as 100%.
`O=S(=O)(c1ccccc1)N(CCc1ccccc1)c1sc2ccccc2c1Cl` [Compound 85, N-(3-Chloro-benzo[b]thiophen-2-yl)-N-(phenethyl)-benzenesulfonamide] showed an inhibition at 0.5 µM [1] of 100%.
